Test results: patent US20230150960A1, “COMPOSITIONS AND METHODS OF USING CYANINE DYES TO TARGET CANCER AND MITOCHONDRIA” (Thomas Jefferson University, priority 2020, published 2023)

Key:
Type in all cases: physicochemical
[1] = Solubility of sodium deoxycholate-containing formulations (post vortexing, 30 min and overnight at 18° C.); details: compound 2 mg/mL; for solubility at 30 s: post vortexing
Description: (§1) Tables 5A, 5B, and 5C describe solubility experiments conducted with the indicated compounds under the listed conditions. Vortexing was conducted using a Denville Vortexer 59 (Denville Scientific Inc.), at maximum speed for 30 seconds. As used herein, the term overnight refers to a period lasting at least about 12-24 hours.

[2] = Solubility of glycerol-containing formulations (post vortexing, 30 min and overnight at 18° C.); details: glycerol-containing formulation, compound 2 mg/mL; for solubility at 30 min / solubility: 18 °C; for solubility at 30 min: after 30 minutes incubation at 18° C.; for solubility: overnight incubation at 18° C.; for solubility at 30 s: post vortexing
Description: as §1, with “3A, 3B,” for “5A, 5B,”, “3C” for “5C”

[3] = Solubility of BSA-containing formulations (post vortexing, 30 min and overnight at 18° C.); details: BSA-containing formulation, aqueous with cosolvent or surfactant or cyclodextrin, compound 2 mg/mL; for solubility at 30 min / solubility: 18 °C; for solubility at 30 min: after 30 minutes incubation at 18° C.; for solubility: overnight incubation at 18° C.; for solubility at 30 s: post vortexing
Description: Vortexing was conducted using a Denville Vortexer 59 (Denville Scientific Inc.), at maximum speed for 30 seconds. As used herein, the term overnight refers to a period lasting at least about 12-24 hours.

Solubility of sodium deoxycholate-containing formulations after 30 min incubation at 18° C., 50 mg/mL ([1]; sodium deoxycholate 50 mg/mL, after 30 minutes incubation at 18° C.): MFG
Solubility of sodium deoxycholate-containing formulations after 30 min incubation at 18° C., 100 mg/mL ([1]; sodium deoxycholate 100 mg/mL, after 30 minutes incubation at 18° C.): MFG
solubility at 30 s ([1]; sodium deoxycholate-containing formulation, aqueous with cosolvent or surfactant or cyclodextrin, sodium deoxycholate 12.5 mg/mL, read-out: Solubility of sodium deoxycholate-containing formulations post vortexing, 12.5 mg/mL): < 2000 µg/mL
solubility at 30 s ([1]; sodium deoxycholate-containing formulation, aqueous with cosolvent or surfactant or cyclodextrin, sodium deoxycholate 25 mg/mL, read-out: Solubility of sodium deoxycholate-containing formulations post vortexing, 25 mg/mL): < 2000 µg/mL
solubility at 30 s ([1]; sodium deoxycholate-containing formulation, aqueous with cosolvent or surfactant or cyclodextrin, sodium deoxycholate 50 mg/mL, read-out: Solubility of sodium deoxycholate-containing formulations post vortexing, 50 mg/mL): < 2000 µg/mL
solubility at 30 s ([1]; sodium deoxycholate-containing formulation, aqueous with cosolvent or surfactant or cyclodextrin, sodium deoxycholate 100 mg/mL, read-out: Solubility of sodium deoxycholate-containing formulations post vortexing, 100 mg/mL): < 2000 µg/mL
solubility at 30 min ([1]; sodium deoxycholate-containing formulation, aqueous with cosolvent or surfactant or cyclodextrin, sodium deoxycholate 12.5 mg/mL, after 30 minutes incubation at 18° C.): < 2000 µg/mL
solubility ([1]; sodium deoxycholate-containing formulation, aqueous with cosolvent or surfactant or cyclodextrin, sodium deoxycholate 12.5 mg/mL, overnight incubation at 18° C., read-out: Solubility of sodium deoxycholate-containing formulations after overnight incubation at 18° C., 12.5 mg/mL): > 2000 µg/mL
solubility at 30 min ([2]; aqueous with cosolvent or surfactant or cyclodextrin, 10% glycerol, read-out: Solubility of glycerol-containing formulations after 30 min incubation at 18° C., 10%): < 2000 µg/mL
solubility ([2]; aqueous with cosolvent or surfactant or cyclodextrin, 10% glycerol, read-out: Solubility of glycerol-containing formulations after overnight incubation at 18° C., 10%): < 2000 µg/mL
solubility at 30 min ([2]; aqueous with cosolvent or surfactant or cyclodextrin, 20% glycerol, read-out: Solubility of glycerol-containing formulations after 30 min incubation at 18° C., 20%): < 2000 µg/mL
solubility ([2]; aqueous with cosolvent or surfactant or cyclodextrin, 20% glycerol, read-out: Solubility of glycerol-containing formulations after overnight incubation at 18° C., 20%): < 2000 µg/mL
solubility at 30 min ([2]; aqueous with cosolvent or surfactant or cyclodextrin, 30% glycerol, read-out: Solubility of glycerol-containing formulations after 30 min incubation at 18° C., 30%): < 2000 µg/mL
solubility ([2]; aqueous with cosolvent or surfactant or cyclodextrin, 30% glycerol, read-out: Solubility of glycerol-containing formulations after overnight incubation at 18° C., 30%): < 2000 µg/mL
solubility at 30 min ([2]; aqueous with cosolvent or surfactant or cyclodextrin, 40% glycerol, read-out: Solubility of glycerol-containing formulations after 30 min incubation at 18° C., 40%): < 2000 µg/mL
solubility ([2]; aqueous with cosolvent or surfactant or cyclodextrin, 40% glycerol, read-out: Solubility of glycerol-containing formulations after overnight incubation at 18° C., 40%): < 2000 µg/mL
solubility at 30 min ([2]; aqueous with cosolvent or surfactant or cyclodextrin, 50% glycerol, read-out: Solubility of glycerol-containing formulations after 30 min incubation at 18° C., 50%): < 2000 µg/mL
solubility ([2]; aqueous with cosolvent or surfactant or cyclodextrin, 50% glycerol, read-out: Solubility of glycerol-containing formulations after overnight incubation at 18° C., 50%): < 2000 µg/mL
solubility at 30 min ([2]; 0% glycerol, read-out: Solubility of glycerol-containing formulations after 30 min incubation at 18° C., 0%): < 2000 µg/mL
solubility ([2]; 0% glycerol, read-out: Solubility of glycerol-containing formulations after overnight incubation at 18° C., 0%): < 2000 µg/mL
solubility at 30 s ([2]; aqueous with cosolvent or surfactant or cyclodextrin, 10% glycerol, read-out: Solubility of glycerol-containing formulations post vortexing, 10%): < 2000 µg/mL
solubility at 30 s ([2]; aqueous with cosolvent or surfactant or cyclodextrin, 20% glycerol, read-out: Solubility of glycerol-containing formulations post vortexing, 20%): < 2000 µg/mL
solubility at 30 s ([2]; aqueous with cosolvent or surfactant or cyclodextrin, 30% glycerol, read-out: Solubility of glycerol-containing formulations post vortexing, 30%): < 2000 µg/mL
solubility at 30 s ([2]; aqueous with cosolvent or surfactant or cyclodextrin, 40% glycerol, read-out: Solubility of glycerol-containing formulations post vortexing, 40%): < 2000 µg/mL
solubility at 30 s ([2]; aqueous with cosolvent or surfactant or cyclodextrin, 50% glycerol, read-out: Solubility of glycerol-containing formulations post vortexing, 50%): < 2000 µg/mL
solubility at 30 s ([2]; 0% glycerol, read-out: Solubility of glycerol-containing formulations post vortexing, 0%): < 2000 µg/mL
solubility at 30 min ([3]; BSA 40 mg/mL, read-out: Solubility of BSA-containing formulations after 30 min incubation at 18° C., 40 mg/mL): < 2000 µg/mL
solubility ([3]; BSA 40 mg/mL, read-out: Solubility of BSA-containing formulations after overnight incubation at 18° C., 40 mg/mL): < 2000 µg/mL
solubility at 30 min ([3]; BSA 60 mg/mL, read-out: Solubility of BSA-containing formulations after 30 min incubation at 18° C., 60 mg/mL): < 2000 µg/mL
solubility ([3]; BSA 60 mg/mL, read-out: Solubility of BSA-containing formulations after overnight incubation at 18° C., 60 mg/mL): < 2000 µg/mL
solubility at 30 min ([3]; BSA 80 mg/mL, read-out: Solubility of BSA-containing formulations after 30 min incubation at 18° C., 80 mg/mL): < 2000 µg/mL
solubility ([3]; BSA 80 mg/mL, read-out: Solubility of BSA-containing formulations after overnight incubation at 18° C., 80 mg/mL): < 2000 µg/mL
solubility at 30 min ([3]; BSA 100 mg/mL, read-out: Solubility of BSA-containing formulations after 30 min incubation at 18° C., 100 mg/mL): < 2000 µg/mL
solubility ([3]; BSA 100 mg/mL, read-out: Solubility of BSA-containing formulations after overnight incubation at 18° C., 100 mg/mL): < 2000 µg/mL
solubility at 30 s ([3]; BSA 40 mg/mL, read-out: Solubility of BSA-containing formulations post vortexing, 40 mg/mL): < 2000 µg/mL
solubility at 30 s ([3]; BSA 60 mg/mL, read-out: Solubility of BSA-containing formulations post vortexing, 60 mg/mL): < 2000 µg/mL
solubility at 30 s ([3]; BSA 80 mg/mL, read-out: Solubility of BSA-containing formulations post vortexing, 80 mg/mL): < 2000 µg/mL
solubility at 30 s ([3]; BSA 100 mg/mL, read-out: Solubility of BSA-containing formulations post vortexing, 100 mg/mL): < 2000 µg/mL
Structure (SMILES): CCN1/C(=C/C=C/c2oc3ccccc3[n+]2CC)Oc2ccccc21 [JAC-R1, 3′,3′-Diethyloxacarbocyanine iodide]
